Data reported in US7629315B2, “Compositions for blocking the inhibitory effect of human CRP on human leptin” (University of Pittsburgh of the Commonwealth System of …, priority 2005, dated 2009).
“Also recorded” adds a separate entry of the source. Like-named read-outs stand apart in the source and are kept apart here.

Legend:
[1] = system: leptin-induced tyrosine phosphorylation of STAT3; assay: Leptin-induced STAT3 tyrosine phosphorylation in HEK293 cells expressing OB-Rb (western blot), human leptin; type: cell-based; conditions: for effect on leptin-induced tyrosine phosphorylation of STAT3: human leptin 2 nM, protein pre-incubated with leptin, HEK293 OB-Rb cells
Protocol: (§1) 2. Signaling Studies: A HEK293 cell line stably expressing the human long-form receptor, OB-Rb (M. Friedman-Einat et al., 2003, Regul. Pept. 111, 77) was serum starved for 2-h before addition of leptin and CRP. Leptin (SEQ ID NO:4), in the presence or absence of C-reactive proteins, was pre-incubated in μ-MEM for 30 minutes at 37° C. before applied to the cells. After a 30-incubation with leptin (SEQ ID NO:4), the cells were harvested in a previously described protein lysis buffer. A. Z. Zhao et al., 1997, Proc. Natl. Acad. Sci. U.S.A. 94, 322. The protein extract was subjected to a western blot assay with an anti-phospho-STAT3 specific antibody (Cell Signaling, Beverly, Mass.). For studies involving the primary hypothalamic neurons, the rat hypothalamus was surgically isolated right after euthanasia, and immediately placed in the DMEM for incubation with leptin in the presence or absence of CRP.
(§2) To determine if the interaction between CRP and leptin influences cellular actions of leptin, we assessed the ability of leptin to stimulate tyrosine phosphorylation of STAT3 and PI3-kinase activity in the presence of CRP in vitro.

[2] = Serum levels of infused human CRP and human leptin in ob/ob mice (ELISA); type: in vivo, mouse
Protocol: (§3) 3(b) Assessment of serum leptin insulin, and CRP: Human- and mouse-leptin concentrations were measured with the ELISA kit from CHEMICON (Temecular, Calif.) and R&D Systems (Minneapolis, Minn.), respectively, according to the instructions of the manufacturer. Serum mouse insulin concentrations were determined with an ELISA assay (LINCO Research, St. Charles, Mo.). Human CRP concentrations were also evaluated with an ELISA kit (Alpha Diagnostics International, San Antonio, Tex.).

human leptin [3] = target: T1, human leptin (Homo sapiens, UniProt P41159); assay: IC50 for human CRP against human leptin (125I-leptin binding to OBR-expressing HEK293 cells); conditions: in the presence of about 2 ng/ml human leptin
Protocol: 4. Measurement of IC50 for human CRP against human leptin: Human leptin was iodinated with Na^125I using the lodogen method. Briefly, 15 μg of human leptin in 100 mM Phosphate buffer pH 7.5 were incubated with 1 mCi of carrier-free Na^125I (2200 Ci/mmol) in a glass tube containing 50 μg Iodogen. After 10 minute incubation at room temperature, the reaction was stopped with 100 μl 0.1% trifluoroacetic acid (TFA). The reaction mixture was immediately purified by reverse-phase HPLC. The separation employed a 5 minute isocratic step at 20% eluant B in A, followed by two consecutive 30 minute linear gradients from 20 to 50%, then from 50 to 60% eluant B in A (where eluant A is water containing 0.1% TFA and eluant B is acetonitrile containing 0.1% TFA) at a flow rate of 1.5 ml/min. The ^125I-labeled leptin (˜2 ng/ml) was pre-incubated with various concentrations of human CRP in 1 ml of μ-MEM for 30 minute before added to the OBR-expressing HEK293 cells. The incubation would last for 3 hours at 4° C. before the media was aspirated and the cells were dissolved in 0.1N NaOH for scintillation counting.
To examine if human CRP interferes with the binding of human leptin to its receptors, we used a HEK293 cell line stably transfected with the long-form human leptin receptor, OB-Rb. The characterization of this cell line has been reported in earlier studies. M. Friedman-Einat et al., 2003, Regul. Pept. […]

[4] = system: human IL6-stimulated tyrosine phosphorylation of STAT3; assay: IL6-stimulated STAT3 phosphorylation in human primary hepatocytes (specificity control); type: cell-based
[5] = system: leptin signaling in rat primary hypothalamic neurons; assay: Leptin signaling (phospho-STAT3 and PI3-kinase assays) in rat primary hypothalamic neurons; type: cell-based; conditions: human leptin, rat primary hypothalamic ex-plants
Protocol: as §1
Previous studies have reported a requirement of both JAK-STAT and PI3-kinase pathways in mediating leptin signaling within the hypothalamus. C. Vaisse et al., 1996, Nat. Genet. 14, 95; A. Z. Zhao et al., 2002, Nat. Neurosci. 5, 727; K. D. Niswender et al., 2001, Nature 413, 794. The effects of human CRP on leptin signaling in rat primary hypothalamic ex-plants were also tested (FIG. 4D).

mouse leptin = mouse leptin (Mus musculus, UniProt P41160); assay: IC50 for human CRP against mouse leptin (leptin binding to OB-Rb HEK293 cells); conditions: in the presence of about 2 ng/ml mouse leptin
ob/ob mice = assay: Infusion of human CRP and/or human leptin by osmotic pumps into ob/ob mice; type: in vivo, mouse; conditions: for body weight / food-intake: human CRP alone, without co-infusion of leptin; for effect on leptin-regulated body weight / effect on leptin-regulated food-intake: 6 days
Protocol: 3(a). In vivo assessment of CRP functions: The micro-osmotic pumps (#1007D, DURECT, Cupertino, Calif.) were subcutaneously imbedded in the ob/ob or wild-type mice according to the instructions of the manufacturer. The osmotic pumps were pre-filled with saline, CRP, leptin or leptin plus CRP. Food-intake (24-h), body weight, and body temperature were monitored daily post-surgery. Blood glucose concentrations were measured from the tail-vein blood samples right before and at the end of infusion with a Precision Plus glucose meter (Medisense, Abbot Park, Ill.).
as §3
3(c) Measurement of serum- and tissue-triglycerides: Serum- and tissue-triglycerides were determined with the protocols described in J. N. Huan et al., 2003, J. Biol. Chem. 278, 45638. […]

[6] = system: mouse leptin-induced STAT3 activation; assay: Leptin-induced STAT3 tyrosine phosphorylation in HEK293 cells expressing OB-Rb, mouse leptin; type: cell-based; conditions: murine leptin 2 nM
Protocol: as §1, §2

human leptin [7] = target: T1, human leptin; assay: Immunoprecipitation of human CRP with human leptin; type: binding; conditions: leptin/CRP mixture and human serum
Protocol: Direct binding of […] and leptin in an immunoprecipitation assay was determined. Rat CRP was purified from fresh rat serum to >95% employing a previously established affinity-purification protocol. J. Tseng et al., 1988, Mol. Immunol. 25, 679. This purity is very similar to the human CRP preparation obtained from a commercial source (CHEMICON International). The purified human- and rat-CRP proteins were pre-mixed with recombinant human and mouse leptin, respectively, before addition of specific antibodies against human- and mouse-leptin. The concentrations of CRP and leptin in the precipitation reaction were all within the physiological ranges (M. B. Schulze et al., 2004, Diabetes Care 27, 889; T. Kazumi et al., 2003, Metabolism 52, 1113).
In parallel experiments, recombinant leptin was also pre-mixed with human- or rat serum to allow for potential direct interactions prior to immunoprecipitation. The precipitation pellets obtained were subjected to western blot assays with specific anti-CRP antibodies. […] Because of the similarities between rat CRP and human CRP in the binding to leptin and of our main interest in the relevance to human obesity, focus was placed on potential functional effects of human CRP in the subsequent experiments.

[8] = system: insulin-stimulated PI3-kinase; assay: Insulin-stimulated PI3-kinase activity in differentiated 3T3-L1 adipocytes (specificity control); type: cell-based
[9] = human CRP high dosage 40 μg/day co-infused with human leptin
[10] = human CRP high dosage co-infused with leptin
[11] = human CRP low dosage 10 μg/day co-infused with human leptin

T1 sequence (P41159 22-167): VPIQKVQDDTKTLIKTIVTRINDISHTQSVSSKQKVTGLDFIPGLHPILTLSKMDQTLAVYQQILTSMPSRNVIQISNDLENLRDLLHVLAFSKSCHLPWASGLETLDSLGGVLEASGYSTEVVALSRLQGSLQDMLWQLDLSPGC
mouse leptin, sequence (P41160 22-167): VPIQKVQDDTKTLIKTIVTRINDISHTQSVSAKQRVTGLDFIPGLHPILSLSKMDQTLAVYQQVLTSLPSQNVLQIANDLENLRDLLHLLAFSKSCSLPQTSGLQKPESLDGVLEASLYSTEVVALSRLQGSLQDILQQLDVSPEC

IC50 of CRP for reduction of 125I-labeled human leptin binding to its receptors (human leptin [3]): approximately 80 ng/ml
IC50 of human CRP towards mouse leptin (mouse leptin): greater than 64 μg/ml
direct binding to human leptin (immunoprecipitation with anti human-leptin, anti-CRP western blot) (human leptin [7]): could pull down human CRP
Substance: human CRP: human C-reactive protein preparation obtained from a commercial source (CHEMICON International)
calcium dependence of attenuation of leptin signaling ([1]; excess EGTA added to the incubation medium): requires the presence of calcium ions
effect on leptin-induced tyrosine phosphorylation of STAT3 [1]: attenuate the tyrosine-phosphorylation of STAT3; also recorded: Attenuating effects; also recorded: caused the reduction of leptin-stimulated STAT3 activation
effect on leptin-induced tyrosine phosphorylation of STAT3 ([1]; listed as Human CRP): suppressed the activation of STAT3 by leptin
serum concentration of human CRP ([2]; end of infusion, human CRP 48 μg/day/mouse): 850 ± 100 ng/mL
serum concentrations of human CRP attained ([2]; human CRP infused at 10 or 40 μg/day): well within the physiological range observed in human plasma
effect on IL6-stimulated tyrosine phosphorylation of STAT3 [4]: did not suppress IL-6 induced activation of STAT3
effect on IL6-stimulated tyrosine phosphorylation of STAT3 ([4]; listed as Human CRP): does not affect human IL6-stimulated tyrosine phosphorylation of STAT3
effect on leptin signaling (phospho-STAT3 and PI3-kinase) [5]: inhibited leptin signaling in primary hypothalamic neurons
leptin-stimulated STAT3 activation in hypothalamic tissues (ob/ob mice; high dose CRP co-infused with leptin): blocked by co-infusion of CRP with leptin
body weight (ob/ob mice): did not affect food-intake or body weight
food-intake (ob/ob mice): did not affect food-intake or body weight
body weight (ob/ob mice; listed as CRP): does not influence food-intake and body-weight
food-intake (ob/ob mice; listed as CRP): does not influence food-intake and body-weight
effect on leptin-regulated body weight (ob/ob mice; [9]): completely blocked the actions of leptin to restrain appetite and induce weight loss; also recorded: completely blocked the effects of leptin
effect on leptin-regulated food-intake (ob/ob mice; [9]): completely blocked the actions of leptin to restrain appetite and induce weight loss; also recorded: completely blocked the effects of leptin
effect on leptin-regulated rectal temperature (ob/ob mice; human CRP high dosage co-infused with human leptin): attenuation of leptin-induced energy expenditure; also recorded: completely blocked the effects of leptin on rectal temperature
effect on leptin-induced change in blood glucose (ob/ob mice; [10]): blocked these effects of leptin; also recorded: completely blocked leptin-induced beneficial effects
effect on leptin-induced change in hepatic triglycerides (ob/ob mice; [10]): blocked these effects of leptin; also recorded: completely blocked leptin-induced beneficial effects
effect on leptin-induced change in serum insulin (ob/ob mice; [10]): blocked these effects of leptin; also recorded: completely blocked leptin-induced beneficial effects
effect on leptin-induced change in serum triglycerides (ob/ob mice; [10]): blocked these effects of leptin; also recorded: completely blocked leptin-induced beneficial effects
effect on leptin-regulated body weight (ob/ob mice; [11]): only partially attenuated these effects of human leptin; also recorded: only partially blocked leptin's effect
effect on leptin-regulated food-intake (ob/ob mice; [11]): only partially attenuated these effects of human leptin; also recorded: only partially blocked leptin's effect
effect on mouse leptin-induced STAT3 phosphorylation [6]: less efficient in blocking the signaling capacity of mouse leptin; also recorded: unable to block leptin-induced STAT3 activation
effect on insulin-stimulated PI3-kinase activity [8]: did not suppress; also recorded: does not affect insulin-stimulated PI3-kinase activity
